Assay results from PubChem BioAssay (NCI).
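Tested at 5 concentrations; 48 h exposure; 96-well plates; endpoints linearly interpolated, else capped at highest concentration. GI50 is the concentration that inhibits growth by half. TGI denotes the concentration required for complete inhibition of growth.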

How the values were obtained:
Test in all cases: NCI anticancer screen, dose series, 48 h
HOP-18 NSCLC = system: HOP-18 NSCLC
RXF-631 renal = system: RXF-631 renal
M19-MEL melanoma = system: M19-MEL melanoma
LXFL 529 NSCLC = system: LXFL 529 NSCLC
XF 498 CNS = system: XF 498 CNS
DLD-1 colon = system: DLD-1 colon
DMS 273 small cell lung = system: DMS 273 small cell lung
MDA-N = system: MDA-N

Work on `NC(=O)c1ncn(C2OC(CO)C(O)C2O)c1O` (centres undefined) yielded a TGI (HOP-18 NSCLC) of over 100 µM, a TGI (RXF-631 renal) of over 100 µM and a TGI (M19-MEL melanoma) of over 100 µM. It also gave a TGI (LXFL 529 NSCLC) of over 100 µM and a TGI (XF 498 CNS) of over 100 µM.
With `Cc1[nH]c2cc([N+](=O)[O-])ccc2c1[N+](=O)[O-]` the TGI (DLD-1 colon) was over 100 µM, the TGI (LXFL 529 NSCLC) was 48.3 µM and the TGI (XF 498 CNS) was 50 µM.
For `Cc1ccc(S(=O)(=O)C2CC2(Cl)Cl)cc1` (centres undefined), the TGI (DMS 273 small cell lung) was over 100 µM, the TGI (RXF-631 renal) was 50.8 µM and the TGI (DLD-1 colon) was 61.1 µM. The TGI (M19-MEL melanoma) was 67.7 µM, the TGI (LXFL 529 NSCLC) was 34 µM and the TGI (XF 498 CNS) was 45.2 µM.
For `COc1ccc(C(O)c2ccccn2)cc1` (centres undefined), the TGI (MDA-N) was over 100 µM.
Compound `CCCCOC(=O)NC(=O)c1cn(CCCOC(=O)CCCCCCCCC(=O)OCCCn2cc(C(=O)NC(=O)OCCCC)c(=O)n(C)c2=O)c(=O)n(C)c1=O` has a TGI (DMS 273 small cell lung) of over 100 µM, a TGI (RXF-631 renal) of over 100 µM and a TGI (DLD-1 colon) of over 100 µM. It also gave a TGI (M19-MEL melanoma) of over 100 µM, a TGI (LXFL 529 NSCLC) of over 100 µM and a TGI (XF 498 CNS) of over 100 µM.
With `NS(=O)(=O)c1ccc(N=Nc2c[nH]c(=O)c(O)c2)cc1` the TGI (MDA-N) was over 100 µM.
`COC(=O)[C@@]12C3=NO[C@]1(C(=O)OC)C(O[Si](C)(C)C(C)(C)C)[C@@H](OC(C)=O)[C@@H](OC(C)=O)[C@@H]2[C@@H](OCc1ccccc1)CC3` (some centres undefined) was tested, and the TGI (DMS 273 small cell lung) was over 100 µM, the TGI (HOP-18 NSCLC) was over 100 µM and the TGI (DLD-1 colon) was over 100 µM. It also gave a TGI (M19-MEL melanoma) of over 100 µM, a TGI (LXFL 529 NSCLC) of over 100 µM and a TGI (XF 498 CNS) of over 100 µM.
Compound `COc1ccc(/C=C/c2ccnc3ccccc23)cc1OC` has a TGI (MDA-N) of 27 µM.
In the case of `CC(=O)C1C(=O)C(=O)N(CCN2C(=O)C(=O)C(C(C)=O)C2=O)C1=O` (centres undefined), the TGI (DMS 273 small cell lung) was over 100 µM, the TGI (HOP-18 NSCLC) was over 100 µM and the TGI (RXF-631 renal) was over 100 µM. The TGI (M19-MEL melanoma) was over 100 µM, the TGI (LXFL 529 NSCLC) was over 100 µM and the TGI (XF 498 CNS) was over 100 µM.
In the case of `C=CCSC(C)=O`, the TGI (MDA-N) was over 100 µM.
With `Cc1ccc(Nc2nc(-c3ccc(-c4ccc([N+](=O)[O-])cc4)o3)cs2)cc1` the TGI (DMS 273 small cell lung) was over 100 µM, the TGI (DLD-1 colon) was over 100 µM and the TGI (M19-MEL melanoma) was over 100 µM. It also gave a TGI (LXFL 529 NSCLC) of over 100 µM.
For `Cc1cc(Br)ccc1N=Nc1c(C)nn(-c2ccccc2)c1-c1ccccc1`, the TGI (DMS 273 small cell lung) was over 100 µM, the TGI (HOP-18 NSCLC) was over 100 µM and the TGI (DLD-1 colon) was over 100 µM. For the same compound, the TGI (M19-MEL melanoma) was over 100 µM, the TGI (LXFL 529 NSCLC) was over 100 µM and the TGI (XF 498 CNS) was over 100 µM.
`O=C1[C@@H]2C(c3ccccc3[N+](=O)[O-])=NO[C@@H]2C(=O)N1c1ccc(Cc2ccc(N3C(=O)[C@H]4C(c5ccccc5[N+](=O)[O-])=NO[C@H]4C3=O)cc2)cc1` gave a TGI (HOP-18 NSCLC) of over 100 µM, a TGI (DLD-1 colon) of over 100 µM and a TGI (LXFL 529 NSCLC) of over 100 µM.
Compound `CC(=O)CC(=O)Nc1ccccc1C(F)(F)F` has a TGI (RXF-631 renal) of over 100 µM, a TGI (DLD-1 colon) of over 100 µM and a TGI (M19-MEL melanoma) of over 100 µM. For the same compound, the TGI (LXFL 529 NSCLC) was over 100 µM and the TGI (XF 498 CNS) was over 100 µM.
`CN(C)N=Nc1ccc(S(N)(=O)=O)cc1` showed a TGI (DMS 273 small cell lung) of over 100 µM, a TGI (HOP-18 NSCLC) of over 100 µM and a TGI (DLD-1 colon) of over 100 µM. It also gave a TGI (M19-MEL melanoma) of over 100 µM and a TGI (XF 498 CNS) of over 100 µM.
Compound `COc1ccc(C(=O)C(C(=O)C(=O)NCCCNC(=O)C(=O)C(C(=O)c2ccc(OC)cc2)c2ccc(OC)cc2)c2ccc(OC)cc2)cc1` (centres undefined) has a TGI (DMS 273 small cell lung) of over 100 µM, a TGI (HOP-18 NSCLC) of over 100 µM and a TGI (DLD-1 colon) of over 100 µM. It also gave a TGI (LXFL 529 NSCLC) of over 100 µM and a TGI (XF 498 CNS) of over 100 µM.
`O=C(N/C(=C\c1ccc(/C=C(\NC(=O)c2ccccc2)c2nc3c(O)nc(S)nc3[nH]2)cc1)c1nc2c(O)nc(S)nc2[nH]1)c1ccccc1` showed a TGI (DMS 273 small cell lung) of over 100 µM, a TGI (HOP-18 NSCLC) of over 100 µM and a TGI (RXF-631 renal) of over 100 µM. It also gave a TGI (DLD-1 colon) of over 100 µM, a TGI (LXFL 529 NSCLC) of over 100 µM and a TGI (XF 498 CNS) of over 100 µM.
`CCN(CC)C(=S)SS(C)(=O)=O` was tested, and the TGI (DMS 273 small cell lung) was 36 µM, the TGI (HOP-18 NSCLC) was over 100 µM and the TGI (DLD-1 colon) was 33.3 µM. It also gave a TGI (M19-MEL melanoma) of 30.6 µM and a TGI (LXFL 529 NSCLC) of 30 µM.
In the case of `CCC(c1ccccc1)c1cc(C(C)(C)C)cc(C(C)(C)C)c1O` (centres undefined), the TGI (MDA-N) was 30.9 µM.
With `CC1=C2C=CC(=O)C[C@@]2(C)CCC1` the TGI (DMS 273 small cell lung) was over 100 µM, the TGI (RXF-631 renal) was over 100 µM and the TGI (DLD-1 colon) was over 100 µM. It also gave a TGI (M19-MEL melanoma) of over 100 µM, a TGI (LXFL 529 NSCLC) of over 100 µM and a TGI (XF 498 CNS) of over 100 µM.
For `O=C1C=CC(=O)c2c1nc(CBr)[nH]c2=O`, the TGI (MDA-N) was over 100 µM.
`COc1ccc2c(c1)[n+]([O-])c(-c1ccccc1Cl)c(N)[n+]2[O-]` showed a TGI (DMS 273 small cell lung) of over 100 µM, a TGI (HOP-18 NSCLC) of over 100 µM and a TGI (RXF-631 renal) of over 100 µM. For the same compound, the TGI (DLD-1 colon) was over 100 µM, the TGI (M19-MEL melanoma) was over 100 µM and the TGI (LXFL 529 NSCLC) was over 100 µM.
Compound `CCN(CC)c1ccc(C2N3CCCCC3[C@@H]3c4[nH]c5ccccc5c4CCN23)cc1` (some centres undefined) has a TGI (DMS 273 small cell lung) of over 100 µM, a TGI (HOP-18 NSCLC) of over 100 µM and a TGI (DLD-1 colon) of over 100 µM. It also gave a TGI (M19-MEL melanoma) of 57.1 µM, a TGI (LXFL 529 NSCLC) of 55.6 µM and a TGI (XF 498 CNS) of 41 µM.
Work on `CC1(C)C(=O)/C=C\C(=O)C(C)(C)C(=O)/C=C\C(=O)C(C)(C)C2=CC=C(O2)C(C)(C)C(=O)/C=C\C1=O` yielded a TGI (DMS 273 small cell lung) of 10.1 µM, a TGI (HOP-18 NSCLC) of 37.1 µM and a TGI (RXF-631 renal) of over 52.7 µM. For the same compound, the TGI (MDA-N) was 19.1 µM, the TGI (DLD-1 colon) was 3.61 µM and the TGI (M19-MEL melanoma) was 13.6 µM. The TGI (LXFL 529 NSCLC) was 6.14 µM and the TGI (XF 498 CNS) was 3.86 µM.
`COc1cc(O)c(C(=O)/C=C/c2ccc(OC)c(OCc3ccccc3)c2)c(OC)c1` gave a TGI (DMS 273 small cell lung) of 1.76 µM, a TGI (HOP-18 NSCLC) of over 100 µM and a TGI (DLD-1 colon) of over 100 µM. For the same compound, the TGI (M19-MEL melanoma) was over 100 µM, the TGI (LXFL 529 NSCLC) was over 100 µM and the TGI (XF 498 CNS) was over 100 µM.
`Cc1c(-c2ccccn2)ccc2ccccc12` was tested, and the TGI (MDA-N) was over 100 µM.
`CC(=O)[CH-]C(=O)c1ccccc1.CC(=O)[CH-]C(=O)c1ccccc1.CC(=O)[CH-]C(=O)c1ccccc1.[Ga+3]` gave a GI50 (HOP-18 NSCLC) of 18 µM, a TGI (HOP-18 NSCLC) of 61.5 µM and a GI50 (DLD-1 colon) of 16.6 µM. For the same compound, the TGI (DLD-1 colon) was 53.6 µM, the GI50 (M19-MEL melanoma) was 13.4 µM and the TGI (M19-MEL melanoma) was 30.5 µM. It also gave a GI50 (LXFL 529 NSCLC) of 12 µM and a TGI (LXFL 529 NSCLC) of 24.8 µM.
`N=C(CC(=O)Nc1ccccn1)c1ccccc1` was tested, and the TGI (MDA-N) was over 100 µM.
Work on `CCCCCCCCCCCCCS(=O)(=O)NCC(N)=O` yielded a TGI (HOP-18 NSCLC) of over 100 µM, a TGI (DLD-1 colon) of over 100 µM and a TGI (M19-MEL melanoma) of over 100 µM. For the same compound, the TGI (LXFL 529 NSCLC) was over 100 µM and the TGI (XF 498 CNS) was over 100 µM.
With `CCOC(=O)C1C(=O)CC(=O)C2CCCCC21` (centres undefined) the TGI (DMS 273 small cell lung) was over 100 µM, the TGI (RXF-631 renal) was over 100 µM and the TGI (DLD-1 colon) was over 100 µM. It also gave a TGI (LXFL 529 NSCLC) of over 100 µM and a TGI (XF 498 CNS) of over 100 µM.
